From BindingDB's records for doi:10.3109/14756366.2010.486793 (University of Zimbabwe, 2010)

Molecular target: glutathione S-transferase (Plasmodium falciparum)
Test: A range of natural products were screened for inhibition of PfGST by GST assay with CDNB as a substrate, using a 96-well SpectraMax 340 microplate spectrophotometer equipped with a kinetics mode (Molecular Devices, California). The final concentration of CDNB was 0.5 mM and of GSH was 1mM. Ethacrynic acid (ETA) and haemin were used as positive controls. The incub

| SMILES | IC50 [µM] |
| --- | --- |
| C=Cc1c(OC=O)cc(O)c2c1OC(c1ccc(O)c(O)c1)C(O)C2 (stereo not drawn) [TRAL-1] | 12 |
| C=C1C(=O)OC2/C=C(\COC(C)=O)CC/C=C(\CO)CC(OC(C)=O)[C@@H]12 (stereo partly drawn) [JB42C] | 8.5 |
| COC(=O)[C@@H]1[C@@H]2C[C@H]3N(C)CC[C@@]34c3ccccc3N(C(C)=O)[C@H]4[C@@H]2CO[C@@H]1C [Malagashanine] | > 100 |
